What follows are cell lines tested with C1CCC(CC1)N(CCNCCC2=C3C(=C(C=C2)O)NC(=O)CO3)C(=O)CCNCCC4=CC(=C(C=C4)Cl)Cl [AZ505] + Nc1nc2[nH]cc(CCc3ccc(C(=O)N[C@@H](CCC(=O)O)C(=O)O)cc3)c2c(=O)[nH]1 [Pemetrexed] (partner 0.2 µM) (assay: relative viability (nuclei count vs DMSO), 5 days (fraction); higher = more cells survive). Details: first compound 0.08 µM.
Summary of the method: (§1)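 Relative viability equals treated-well nuclei counts divided by vehicle-well nuclei counts. Counts came from 4× images of lung cancer cell lines grown in 1536-well plates for 5 days after pin-tool dosing on the day after seeding. Dosing used one drug alone or a fixed anchor-drug dose plus five library-drug doses (not always all listed) in √10 steps, and values are medians of duplicate plates.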

Cell Line | relative viability
NCI-H2405 | 0.715
HOP-62 | 0.325
LU99A | 0.199
BEN | 0.682
HARA | 0.208
NCI-H322M | 0.604
LCLC-97TM1 | 0.161
NCI-H2009 | 1.05
A-427 | 0.964
NCI-H441 | 0.254
NCI-H661 | 0.834
NCI-H1734 | 0.405
NCI-H460 | 0.063
NCI-H2347 | 0.392
SW 1573 | 0.761
201T | 0.343
NCI-H1915 | 0.541
HCC-827 | 0.288
LXF-289 | 0.84
NCI-H23 | 0.638
NCI-H647 | 0.158
CAL-12T | 1.08
NCI-H1651 | 0.529
EPLC-272H | 0.246
NCI-H2228 | 0.334
NCI-H1355 | 0.953

Same assay, conditions: first compound 0.253 µM

Cell Line | relative viability
HOP-62 | 0.443
LU99A | 0.22
BEN | 0.678
LCLC-97TM1 | 0.253
NCI-H2009 | 1.01
A-427 | 0.961
NCI-H441 | 0.272
NCI-H661 | 0.928
NCI-H1734 | 0.351
NCI-H460 | 0.0565
NCI-H2347 | 0.367
SW 1573 | 0.851
201T | 0.342
NCI-H1915 | 0.492
HCC-827 | 0.269
LXF-289 | 0.92
NCI-H23 | 0.506
NCI-H647 | 0.155
CAL-12T | 1.2
NCI-H1651 | 0.557
EPLC-272H | 0.318
NCI-H2228 | 0.353
NCI-H1355 | 1

Same assay, conditions: first compound 0.8 µM

Cell Line | relative viability
NCI-H2405 | 0.841
HOP-62 | 0.327
LU99A | 0.19
BEN | 0.871
HARA | 0.213
HCC-78 | 0.916
NCI-H322M | 0.61
LCLC-97TM1 | 0.193
NCI-H2009 | 0.984
A-427 | 0.904
NCI-H441 | 0.278
NCI-H661 | 0.865
NCI-H1734 | 0.392
NCI-H460 | 0.0644
NCI-H2347 | 0.428
SW 1573 | 0.928
201T | 0.403
NCI-H1915 | 0.534
HCC-827 | 0.288
LXF-289 | 0.785
NCI-H23 | 0.604
NCI-H647 | 0.195
CAL-12T | 1.26
NCI-H1651 | 0.608
EPLC-272H | 0.254
NCI-H2228 | 0.366
NCI-H1355 | 1.03

Same assay, conditions: first compound 2.53 µM

Cell Line | relative viability
NCI-H2405 | 0.882
HOP-62 | 0.393
BEN | 0.746
HARA | 0.24
HCC-78 | 0.904
NCI-H322M | 0.647
NCI-H2009 | 1.06
A-427 | 0.948
NCI-H441 | 0.308
NCI-H661 | 0.931
NCI-H1734 | 0.398
NCI-H460 | 0.0703
NCI-H2347 | 0.387
SW 1573 | 0.869
201T | 0.345
NCI-H1915 | 0.614
HCC-827 | 0.264
LXF-289 | 0.932
NCI-H23 | 0.73
NCI-H647 | 0.196
CAL-12T | 1.29
NCI-H1651 | 0.679
EPLC-272H | 0.245
NCI-H2228 | 0.356
NCI-H1355 | 0.996

Same assay, conditions: first compound 8 µM

Cell Line | relative viability
NCI-H2405 | 0.97
HOP-62 | 0.379
LU99A | 0.199
BEN | 0.786
HARA | 0.228
HCC-78 | 0.918
NCI-H322M | 0.648
LCLC-97TM1 | 0.175
NCI-H2009 | 1.01
A-427 | 1.01
NCI-H441 | 0.262
NCI-H661 | 0.928
NCI-H1734 | 0.416
NCI-H460 | 0.0621
NCI-H2347 | 0.428
SW 1573 | 0.876
201T | 0.31
NCI-H1915 | 0.525
HCC-827 | 0.266
LXF-289 | 0.903
NCI-H23 | 0.668
NCI-H647 | 0.184
CAL-12T | 1.46
NCI-H1651 | 0.6
EPLC-272H | 0.232
NCI-H2228 | 0.283
NCI-H1355 | 1

The cell lines below were run with Cn1c(=O)n(-c2ccc(C(C)(C)C#N)cc2)c2c3cc(-c4cnc5ccccc5c4)ccc3ncc21 [Dactolisib] + CC(C)C[C@H](NC(=O)[C@H](Cc1ccccc1)NC(=O)c1cnccn1)B(O)O [Bortezomib] (partner 0.002 µM) in the same assay as above. Details: first compound 0.002 µM.
Summary of the method: as §1

Cell Line | relative viability
NCI-H2405 | 1
HOP-62 | 0.884
LU99A | 1.12
BEN | 0.766
HARA | 1.12
HCC-78 | 0.483
NCI-H322M | 1.21
LCLC-97TM1 | 0.766
NCI-H2009 | 1.07
A-427 | 0.947
NCI-H441 | 0.523
NCI-H661 | 0.659
NCI-H1734 | 0.92
NCI-H460 | 1.28
NCI-H2347 | 0.809
SW 1573 | 1.18
201T | 1.05
NCI-H1915 | 1.06
HCC-827 | 1.12
LXF-289 | 1.07
NCI-H23 | 1.04
NCI-H647 | 0.868
CAL-12T | 1.05
NCI-H1651 | 1.05
EPLC-272H | 0.899
NCI-H2228 | 1.08
NCI-H1355 | 1.21

Same assay, conditions: first compound 0.006325 µM

Cell Line | relative viability
NCI-H2405 | 0.97
HOP-62 | 0.867
LU99A | 0.903
BEN | 0.795
HARA | 1.08
HCC-78 | 0.43
NCI-H322M | 1.24
LCLC-97TM1 | 0.489
NCI-H2009 | 1.01
A-427 | 0.959
NCI-H441 | 0.457
NCI-H661 | 0.87
NCI-H1734 | 0.741
NCI-H460 | 1.11
NCI-H2347 | 0.916
SW 1573 | 0.847
201T | 1.08
NCI-H1915 | 0.931
HCC-827 | 1.01
LXF-289 | 1.03
NCI-H23 | 0.924
NCI-H647 | 0.798
CAL-12T | 1.13
NCI-H1651 | 0.952
EPLC-272H | 0.903
NCI-H2228 | 0.81
NCI-H1355 | 1.21

Same assay, conditions: first compound 0.02 µM

Cell Line | relative viability
NCI-H2405 | 0.96
HOP-62 | 0.518
LU99A | 0.543
BEN | 0.809
HARA | 1.13
HCC-78 | 0.404
NCI-H322M | 1.13
LCLC-97TM1 | 0.528
NCI-H2009 | 0.972
A-427 | 0.966
NCI-H441 | 0.305
NCI-H661 | 0.67
NCI-H1734 | 0.781
NCI-H460 | 0.984
NCI-H2347 | 0.894
SW 1573 | 0.771
201T | 1.08
NCI-H1915 | 0.965
HCC-827 | 1.11
LXF-289 | 1.07
NCI-H23 | 0.798
NCI-H647 | 0.42
CAL-12T | 0.825
NCI-H1651 | 0.884
EPLC-272H | 0.721
NCI-H2228 | 0.541
NCI-H1355 | 1.13

Same assay, conditions: first compound 0.06325 µM

Cell Line | relative viability
NCI-H2405 | 0.892
HOP-62 | 0.41
LU99A | 0.366
BEN | 0.598
HARA | 1.1
HCC-78 | 0.269
NCI-H322M | 1.07
LCLC-97TM1 | 0.525
NCI-H2009 | 0.44
A-427 | 0.61
NCI-H441 | 0.157
NCI-H661 | 0.397
NCI-H1734 | 0.346
NCI-H460 | 0.106
NCI-H2347 | 0.691
SW 1573 | 0.331
201T | 1.07
NCI-H1915 | 0.902
HCC-827 | 1.14
LXF-289 | 0.971
NCI-H23 | 0.247
NCI-H647 | 0.193
CAL-12T | 0.721
NCI-H1651 | 0.886
EPLC-272H | 0.693
NCI-H2228 | 0.259
NCI-H1355 | 0.937

Same assay, conditions: first compound 0.2 µM

Cell Line | relative viability
NCI-H2405 | 0.628
HOP-62 | 0.252
LU99A | 0.249
BEN | 0.289
HARA | 0.491
HCC-78 | 0.203
NCI-H322M | 0.838
LCLC-97TM1 | 0.128
NCI-H2009 | 0.288
A-427 | 0.581
NCI-H441 | 0.196
NCI-H661 | 0.288
NCI-H1734 | 0.243
NCI-H460 | 0.0739
NCI-H2347 | 0.402
SW 1573 | 0.373
201T | 0.856
NCI-H1915 | 0.737
HCC-827 | 1.05
LXF-289 | 0.648
NCI-H23 | 0.294
NCI-H647 | 0.143
CAL-12T | 0.338
NCI-H1651 | 0.67
EPLC-272H | 0.496
NCI-H2228 | 0.18
NCI-H1355 | 0.525

Each cell line was assayed with Cn1c(=O)n(-c2ccc(C(C)(C)C#N)cc2)c2c3cc(-c4cnc5ccccc5c4)ccc3ncc21 [Dactolisib] + O=C(CCCCCCC(=O)Nc1ccccc1)NO [Vorinostat] (partner 1 µM) in the same assay as above. Details: first compound 0.002 µM.
Summary of the method: as §1

Cell Line | relative viability
NCI-H2405 | 1.09
HOP-62 | 0.572
LU99A | 0.417
